Test results: patent US10988477B2 (Merck Patent GmbH, priority 2018, dated 2021)
pIC50, pKi: −log10 of the molar value. Where two headings read alike, the source gives them in different places.

How the values were obtained:
GCN2 kinase = GCN2 kinase (Homo sapiens, UniProt Q9P2K8); experiment: GCN2 enzyme inhibition assay (Transcreener ADP2 fluorescence polarization); format: biochemical; settings: 280 μM ATP
Procedure, shortened: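 4 nM GCN2 + 200 μM (RS)7 + compound (0–8 μM), 10 min preinc.; start with ATP (280 μM final); 1 h, 25 °C; pH 7.5 Tris/NaCl/MgCl2/DTT; ADP FP readout; IC50, Ki(app) via tight-binding fit.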

[1] = biological target: intracellular GCN2 (phosphorylation of the GCN2 substrate eIF2α) (Homo sapiens, UniProt Q9P2K8); experiment: GCN2 cellular inhibition assay (AlphaScreen SureFire P-eIF2α Ser51, borrelidin-treated U2OS cells); format: cell-based
Procedure, shortened: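 U2OS cells, adhered overnight, received compounds in 4-fold serial dilutions from 40 μM final, then 10 μM borrelidin for 1 h at 37 °C. Lysates were read by AlphaScreen for phospho-eIF2α Ser51; percent inhibition was set against borrelidin-only wells.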

[2] = compounds of Formula II, 4 nM GCN2 kinase
[3] = compounds of Formula II, biomarker assay, phosphorylated eIF2α Ser51 in borrelidin-treated U2OS cells
[4] = Enzyme activity for compounds of Formula IV, Ki(app), 25° C.
[5] = compounds of Formula IV, biomarker assay, phosphorylated eIF2α Ser51 in borrelidin-treated U2OS cells

Chain of intracellular GCN2 (phosphorylation of the GCN2 substrate eIF2α) (Q9P2K8 whole entry): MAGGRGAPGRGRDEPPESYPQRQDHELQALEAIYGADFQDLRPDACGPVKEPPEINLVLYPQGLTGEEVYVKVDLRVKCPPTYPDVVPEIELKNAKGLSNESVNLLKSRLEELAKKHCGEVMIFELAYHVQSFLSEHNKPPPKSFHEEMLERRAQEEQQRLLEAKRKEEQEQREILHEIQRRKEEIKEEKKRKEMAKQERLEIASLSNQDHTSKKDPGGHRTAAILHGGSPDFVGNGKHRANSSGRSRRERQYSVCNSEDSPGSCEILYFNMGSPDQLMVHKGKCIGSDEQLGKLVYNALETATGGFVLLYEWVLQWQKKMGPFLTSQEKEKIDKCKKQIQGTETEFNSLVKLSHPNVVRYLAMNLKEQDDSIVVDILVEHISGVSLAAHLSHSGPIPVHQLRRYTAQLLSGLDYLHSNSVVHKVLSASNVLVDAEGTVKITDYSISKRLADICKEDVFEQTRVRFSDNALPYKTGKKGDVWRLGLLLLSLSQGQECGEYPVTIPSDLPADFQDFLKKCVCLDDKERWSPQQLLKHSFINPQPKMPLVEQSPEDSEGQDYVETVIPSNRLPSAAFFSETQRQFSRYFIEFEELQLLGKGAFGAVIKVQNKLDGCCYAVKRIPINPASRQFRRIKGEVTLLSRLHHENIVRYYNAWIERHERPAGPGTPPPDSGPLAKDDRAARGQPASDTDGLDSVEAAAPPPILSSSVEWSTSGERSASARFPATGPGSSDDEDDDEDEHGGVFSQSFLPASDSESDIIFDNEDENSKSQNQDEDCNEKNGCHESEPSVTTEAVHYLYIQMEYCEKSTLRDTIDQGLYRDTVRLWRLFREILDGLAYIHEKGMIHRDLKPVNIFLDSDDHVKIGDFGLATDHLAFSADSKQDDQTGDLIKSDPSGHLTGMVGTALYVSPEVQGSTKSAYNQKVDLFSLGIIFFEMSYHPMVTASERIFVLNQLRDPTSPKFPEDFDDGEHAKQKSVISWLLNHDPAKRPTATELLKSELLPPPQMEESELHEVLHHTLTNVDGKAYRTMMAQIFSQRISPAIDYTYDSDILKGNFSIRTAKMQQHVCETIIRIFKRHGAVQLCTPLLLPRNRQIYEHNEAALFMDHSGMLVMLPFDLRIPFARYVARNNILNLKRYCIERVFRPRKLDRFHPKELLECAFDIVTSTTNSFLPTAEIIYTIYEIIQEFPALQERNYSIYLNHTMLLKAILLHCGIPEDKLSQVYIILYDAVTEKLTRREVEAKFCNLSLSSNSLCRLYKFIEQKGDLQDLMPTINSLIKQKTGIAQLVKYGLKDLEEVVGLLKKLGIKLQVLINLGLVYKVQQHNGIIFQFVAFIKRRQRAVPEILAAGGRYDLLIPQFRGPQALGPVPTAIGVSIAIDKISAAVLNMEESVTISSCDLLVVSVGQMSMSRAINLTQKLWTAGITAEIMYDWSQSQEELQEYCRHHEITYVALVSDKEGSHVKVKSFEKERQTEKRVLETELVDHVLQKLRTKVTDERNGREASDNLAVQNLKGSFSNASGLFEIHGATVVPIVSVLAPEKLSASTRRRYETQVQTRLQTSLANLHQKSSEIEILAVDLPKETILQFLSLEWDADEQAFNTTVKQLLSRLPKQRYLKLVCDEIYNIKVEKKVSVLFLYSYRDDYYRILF
Chain of GCN2 kinase (Q9P2K8 whole entry): as above

Question: How did the pKi (GCN2 kinase; [2]) turn out when `O=S(=O)(CC1CC1)N[C@H]1CCCN(c2cc(-c3cnc4ccc(C(F)F)nn34)ncn2)C1` [II-420, (S)-1-Cyclopropyl-N-(1-(6-(6-(difluoromethyl)imidazo[1,2-b]pyridazin-3-yl)pyrimidin-4-yl)piperidin-3-yl)methanesulfonamide] was run?
Answer: 6.00 to 8.00

Question: And the pIC50 [1, 3]?
Answer: 5.30 to 6.30

Question: `CC1C(CNS(C)(=O)=O)C(F)(F)C(C)CN1c1cc(-c2cnc3ccc(C(F)F)nn23)ncn1` (stereo not drawn) [II-475, N-((1-(6-(6-(Difluoromethyl)imidazo[1,2-b]pyridazin-3-yl)pyrimidin-4-yl)-4,4-difluoro-2,5-dimethylpiperidin-3-yl)methyl)methanesulfonamide] was tested. Which pKi (GCN2 kinase; [2]) did it give?
Answer: 6.00 to 8.00

Question: What about the pIC50 [1, 3] of the same compound?
Answer: > 6.30

Question: `Cc1n[nH]c(C)c1C1CN(c2ccnc(-c3cnc4cnc(C(F)(F)F)cn34)n2)CC(C)N1` (single isomer, unassigned) [IV-467, 3-(4-(3-(3,5-Dimethyl-1H-pyrazol-4-yl)-5-methylpiperazin-1-yl)pyrimidin-2-yl)-6-(trifluoromethyl)imidazo[1,2-a]pyrazine] was tested. Which pKi (GCN2 kinase; [4]) did it give?
Answer: 6.00 to 7.00

Question: What about the pIC50 [1, 5] of the same compound?
Answer: < 5.30

Question: With `CS(=O)(=O)NCC1CN(c2cc(-c3cnc4ccc(C(F)F)nn34)ccn2)CCO1` (stereo not drawn) [II-149, N-((4-(4-(6-(Difluoromethyl)imidazo[1,2-b]pyridazin-3-yl)pyridin-2-yl)morpholin-2-yl)methyl)methanesulfonamide] as the compound, how does the pKi (GCN2 kinase; [2]) read?
Answer: > 8.00

Question: What about the pIC50 [1, 3] of the same compound?
Answer: > 6.30

Question: With `FC(F)(F)c1cn2c(-c3nccc(N4CCOC(c5cn[nH]c5)C4)n3)cnc2s1` (stereo not drawn) [Compound V-20, 2-(1H-pyrazol-4-yl)-4-(2-(2-(trifluoromethyl)imidazo[2,1-b]thiazol-5-yl)pyrimidin-4-yl)morpholine] as the compound, how does the pKi (GCN2 kinase; compounds of Formula V, 4 nM GCN2 kinase) read?
Answer: > 8.00

Question: And the pIC50 ([1]; compounds of Formula V, U2OS cells, 10 μM borrelidin, 1 h, read-out: GCN2 Biomarker (IC50))?
Answer: > 6.30

Question: How did the pKi (GCN2 kinase; [4]) turn out when `OC1CCCN(c2ccnc(-c3cnc4cnc(C(F)(F)F)cn34)n2)C1` (stereo not drawn) [IV-437, 1-(2-(6-(Trifluoromethyl)imidazo[1,2-a]pyrazin-3-yl)pyrimidin-4-yl)piperidin-3-ol] was run?
Answer: 6.00 to 7.00

Question: And the pIC50 [1, 5]?
Answer: < 5.30

Question: Which results are given for `OC1CCCN(c2ccnc(-c3cnc4cnc(C(F)F)cn34)n2)C1` (stereo not drawn) [IV-120, 1-(2-(6-(Difluoromethyl)imidazo[1,2-a]pyrazin-3-yl)pyrimidin-4-yl)piperidin-3-ol]?
Answer: pKi (GCN2 kinase; [4]): 6.00 to 7.00; pIC50 [1, 5]: < 5.30

Question: With `Cc1n[nH]cc1C1CCCN(c2ccnc(-c3cnc4cnc(C(F)F)cn34)n2)C1` (single isomer, unassigned) [IV-468, 6-(Difluoromethyl)-3-(4-(3-(3-methyl-1H-pyrazol-4-yl)piperidin-1-yl)pyrimidin-2-yl)imidazo[1,2-a]pyrazine] as the compound, how does the pKi (GCN2 kinase; [4]) read?
Answer: 7.00 to 8.00

Question: What about the pIC50 [1, 5] of the same compound?
Answer: 5.30 to 6.30

Question: `CC1CC(C)(O)C(CNS(C)(=O)=O)CN1c1cc(-c2cnc3ccc(C(F)F)nn23)ncn1` (stereo not drawn) [II-367, N-((1-(6-(6-(Difluoromethyl)imidazo[1,2-b]pyridazin-3-yl)pyrimidin-4-yl)-4-hydroxy-4,6-dimethylpiperidin-3-yl)methyl)methanesulfonamide] was tested. Which pKi (GCN2 kinase; [2]) did it give?
Answer: 6.00 to 8.00

Question: And the pIC50 [1, 3]?
Answer: 5.30 to 6.30

Question: `CC(=O)N1CCN(c2cccc(-c3cnc4cnc(-n5cccn5)cn34)n2)CC1` [IV-209, 1-(4-(6-(6-(1H-Pyrazol-1-yl)imidazo[1,2-a]pyrazin-3-yl)pyridin-2-yl)piperazin-1-yl)ethan-1-one] was tested. Which pKi (GCN2 kinase; [4]) did it give?
Answer: > 8.00

Question: What about the pIC50 [1, 5] of the same compound?
Answer: 5.30 to 6.30

Question: What does the source list for `FC(F)c1ccc2ncc(-c3cc(N4CCCC(Cn5ccnn5)C4)ncn3)n2n1` (stereo not drawn) [II-327, 3-(6-(3-((1H-1,2,3-Triazol-1-yl)methyl)piperidin-1-yl)pyrimidin-4-yl)-6-(difluoromethyl)imidazo[1,2-b]pyridazine]?
Answer: pKi (GCN2 kinase; [2]): 6.00 to 8.00; pIC50 [1, 3]: < 5.30

Question: `CC1C(CNS(C)(=O)=O)CCCN1c1cc(-c2cnc3ccc(C(F)F)nn23)ncn1` (single isomer, unassigned) [II-264, N-((1-(6-(6-(Difluoromethyl)imidazo[1,2-b]pyridazin-3-yl)pyrimidin-4-yl)-2-methylpiperidin-3-yl)methyl)methanesulfonamide] was tested. Which pKi (GCN2 kinase; [2]) did it give?
Answer: 6.00 to 8.00

Question: What about the pIC50 [1, 3] of the same compound?
Answer: < 5.30

Question: How did the pKi (GCN2 kinase; [4]) turn out when `CN(C1CCCN(c2ccnc(-c3cnc4cnc(C(F)F)cn34)n2)C1)S(C)(=O)=O` (stereo not drawn) [IV-168, N-(1-(2-(6-(Difluoromethyl)imidazo[1,2-a]pyrazin-3-yl)pyrimidin-4-yl)piperidin-3-yl)-N-methylmethanesulfonamide] was run?
Answer: 6.00 to 7.00

Question: What about the pIC50 [1, 5] of the same compound?
Answer: < 5.30

Question: What does the source list for `OCCC1CCN(c2ccnc(-c3cnc4cnc(C(F)(F)F)cn34)n2)CC1` [IV-442, 2-(1-(2-(6-(Trifluoromethyl)imidazo[1,2-a]pyrazin-3-yl)pyrimidin-4-yl)piperidin-4-yl)ethan-1-ol]?
Answer: pKi (GCN2 kinase; [4]): 6.00 to 7.00; pIC50 [1, 5]: < 5.30

Question: With `CS(=O)(=O)NC[C@@H]1CN(c2cc(-c3cnc4ccc(C(F)F)nn34)ncn2)CCO1` [II-34, (S)—N-((4-(6-(6-(Difluoromethyl)imidazo[1,2-b]pyridazin-3-yl)pyrimidin-4-yl)morpholin-2-yl)methyl)methanesulfonamide] as the compound, how does the pKi (GCN2 kinase; [2]) read?
Answer: > 8.00

Question: What about the pIC50 [1, 3] of the same compound?
Answer: > 6.30

Question: `CC(NS(C)(=O)=O)C1CCCN(c2cc(-c3cnc4ccc(C(F)F)nn34)ccn2)C1` (stereo not drawn) [II-134, N-(1-(1-(4-(6-(Difluoromethyl)imidazo[1,2-b]pyridazin-3-yl)pyridin-2-yl)piperidin-3-yl)ethyl)methanesulfonamide] was tested. Which pKi (GCN2 kinase; [2]) did it give?
Answer: 6.00 to 8.00

Question: What about the pIC50 [1, 3] of the same compound?
Answer: 5.30 to 6.30

Question: How did the pKi (GCN2 kinase; [4]) turn out when `CC1C(C(N)=O)CCCN1c1ccnc(-c2cnc3cnc(C(F)F)cn23)n1` (stereo not drawn) [IV-109, 1-(2-(6-(Difluoromethyl)imidazo[1,2-a]pyrazin-3-yl)pyrimidin-4-yl)-2-methylpiperidine-3-carboxamide] was run?
Answer: 7.00 to 8.00

Question: What about the pIC50 [1, 5] of the same compound?
Answer: 5.30 to 6.30

Question: How did the pKi (GCN2 kinase; [2]) turn out when `NS(=O)(=O)NCC1CN(c2cc(-c3cnc4ccc(C(F)F)nn34)ncn2)CCO1` (stereo not drawn) [II-347, N-((4-(6-(6-(Difluoromethyl)imidazo[1,2-b]pyridazin-3-yl)pyrimidin-4-yl)morpholin-2-yl)methyl)sulfuric diamide] was run?
Answer: > 8.00

Question: What about the pIC50 [1, 3] of the same compound?
Answer: > 6.30

Question: `CS(=O)(=O)NCC1CCCN(c2cc(-c3cnc4ccc(C(F)F)nn34)ccc2C#N)C1` (stereo not drawn) [II-82, N-((1-(2-Cyano-5-(6-(difluoromethyl)imidazo[1,2-b]pyridazin-3-yl)phenyl)piperidin-3-yl)methyl)methanesulfonamide] was tested. Which pKi (GCN2 kinase; [2]) did it give?
Answer: 6.00 to 8.00

Question: And the pIC50 [1, 3]?
Answer: 5.30 to 6.30

Question: With `NC(=O)c1cn2c(-c3nccc(N4CCOC(c5cn[nH]c5)C4)n3)cnc2cn1` (stereo not drawn) [IV-38, 3-(4-(2-(1H-Pyrazol-4-yl)morpholino)pyrimidin-2-yl)imidazo[1,2-a]pyrazine-6-carboxamide] as the compound, how does the pKi (GCN2 kinase; [4]) read?
Answer: 7.00 to 8.00

Question: What about the pIC50 [1, 5] of the same compound?
Answer: < 5.30

Question: `CC1C(CNS(C)(=O)=O)CCCN1c1cc(-c2cnc3ccc(C(F)F)nn23)ncn1` (stereo not drawn) [II-221, N-((1-(6-(6-(Difluoromethyl)imidazo[1,2-b]pyridazin-3-yl)pyrimidin-4-yl)-2-methylpiperidin-3-yl)methyl)methanesulfonamide] was tested. Which pKi (GCN2 kinase; [2]) did it give?
Answer: > 8.00

Question: What about the pIC50 [1, 3] of the same compound?
Answer: > 6.30

Question: What does the source list for `Cc1n[nH]cc1C1CCCN(c2ccnc(-c3cnc4cnc(C(F)F)cn34)n2)C1` (stereo not drawn) [IV-97, 6-(Difluoromethyl)-3-(4-(3-(3-methyl-1H-pyrazol-4-yl)piperidin-1-yl)pyrimidin-2-yl)imidazo[1,2-a]pyrazine]?
Answer: pKi (GCN2 kinase; [4]): 7.00 to 8.00; pIC50 [1, 5]: < 5.30

Question: With `CC1C(CO)OCCN1c1cc(-c2cnc3ccc(C(F)F)nn23)ncn1` (single isomer, unassigned) [II-414, (4-(6-(6-(Difluoromethyl)imidazo[1,2-b]pyridazin-3-yl)pyrimidin-4-yl)-3-methylmorpholin-2-yl)methanol] as the compound, how does the pKi (GCN2 kinase; [2]) read?
Answer: 6.00 to 8.00

Question: What about the pIC50 [1, 3] of the same compound?
Answer: < 5.30

Question: Which results are given for `CC(=O)Nc1cccc2c1CCN(c1cc(-c3cnc4ccc(C(F)F)nn34)ncn1)C2` [II-218, N-(2-(6-(6-(Difluoromethyl)imidazo[1,2-b]pyridazin-3-yl)pyrimidin-4-yl)-1,2,3,4-tetrahydroisoquinolin-5-yl)acetamide]?
Answer: pKi (GCN2 kinase; [2]): 6.00 to 8.00; pIC50 [1, 3]: 5.30 to 6.30

Question: `CNS(=O)(=O)C1CCCN(c2cc(-c3cnc4ccc(C(F)F)nn34)ncn2)C1` (stereo not drawn) [II-480, 1-(6-(6-(Difluoromethyl)imidazo[1,2-b]pyridazin-3-yl)pyrimidin-4-yl)-N-methylpiperidine-3-sulfonamide] was tested. Which pKi (GCN2 kinase; [2]) did it give?
Answer: 6.00 to 8.00

Question: And the pIC50 [1, 3]?
Answer: < 5.30

Question: What does the source list for `NCc1cccc(-c2ccnc(-c3cnc4cnc(C(F)F)cn34)n2)c1` [IV-159, (3-(2-(6-(Difluoromethyl)imidazo[1,2-a]pyrazin-3-yl)pyrimidin-4-yl)phenyl)methanamine]?
Answer: pKi (GCN2 kinase; [4]): 6.00 to 7.00; pIC50 [1, 5]: < 5.30

Question: `Clc1ccc2ncc(-c3ccnc(N4CCOCC4)c3)n2n1` [II-194, 4-(4-(6-Chloroimidazo[1,2-b]pyridazin-3-yl)pyridin-2-yl)morpholine] was tested. Which pKi (GCN2 kinase; [2]) did it give?
Answer: 6.00 to 8.00

Question: What about the pIC50 [1, 3] of the same compound?
Answer: < 5.30

Question: With `CS(=O)(=O)N[C@H]1CCCN(c2cc(-c3cnc4ccc(C(F)F)nn34)ncn2)C1` (single isomer, unassigned) [II-404] as the compound, how does the pKi (GCN2 kinase; [2]) read?
Answer: 6.00 to 8.00

Question: What about the pIC50 [1, 3] of the same compound?
Answer: 5.30 to 6.30

Question: How did the pKi (GCN2 kinase; [2]) turn out when `CC(=O)N1CCN(c2cccc(-c3cnc4ccc(C(F)F)nn34)n2)CC1` [II-731, 1-(4-(6-(6-(difluoromethyl)imidazo[1,2-b]pyridazin-3-yl)pyridin-2-yl)piperazin-1-yl)ethan-1-one] was run?
Answer: < 6.00

Question: What about the pIC50 [1, 3] of the same compound?
Answer: < 5.30

Question: How did the pKi (GCN2 kinase; [2]) turn out when `CS(=O)(=O)NCC1CCCN(c2cc(-c3cnc4ccc(C(F)F)nn34)cc(N3CC4(CNC4)C3)n2)C1` (stereo not drawn) [II-92, N-[[1-[6-(2,6-Diazaspiro[3.3]heptan-2-yl)-4-[6-(difluoromethyl)imidazo[1,2-b]pyridazin-3-yl]-2-pyridyl]-3-piperidyl]methyl]methanesulfonamide] was run?
Answer: > 8.00

Question: What about the pIC50 [1, 3] of the same compound?
Answer: 5.30 to 6.30
